Patent publication US20240158348A1, “HERBICIDAL CYCLIC AMIDES N-SUBSTITUTED WITH A HALOALKYLSULFONYLANILIDE GROUP” (FMC Corporation, priority 2021, published 2024)

What was measured:
Format in all cases: in vivo
[1] = system: foxtail, giant (giant foxtail, Setaria faberi); test: Test C preemergence, giant foxtail; details: 0 is no effect, 100 is complete control
How it was run: (§1)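 Herbicidal effect was estimated visually on a 0–100 scale 10 or 12 days after spraying. Formulation: non-phytotoxic solvent mixture with surfactant. Timing: directed soil spray after sowing, or postemergence on seedlings bearing one or two leaves.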

[2] = system: soybean (Glycine max); test: Test C postemergence, soybean; details: for Soybean plant response rating: visual injury, 0 to 100 scale (0 no effect, 100 complete control)
[3] = system: wheat (Triticum aestivum); test: Test C preemergence, wheat; details: 0 is no effect, 100 is complete control
[4] = system: blackgrass (Alopecurus myosuroides); test: Test C preemergence, blackgrass; details: 0 is no effect, 100 is complete control
How it was run: as §1

[5] = system: ragweed (common ragweed, Ambrosia artemisiifolia); test: Test C preemergence, ragweed; details: 0 is no effect, 100 is complete control
How it was run: as §1

[6] = system: corn (Zea mays); test: Test C postemergence, corn; details: for Corn plant response rating: visual injury, 0 to 100 scale (0 no effect, 100 complete control); for Plant response rating (0 to 100 scale), Corn: 0 is no effect, 100 is complete control
[7] = system: soybean (Glycine max); test: Test C preemergence, soybean; details: 0 is no effect, 100 is complete control
How it was run: as §1

[8] = system: ryegrass, Italian (Italian ryegrass, Lolium multiflorum); test: Test C postemergence, Italian ryegrass; details: for Ryegrass, Italian plant response rating: visual injury, 0 to 100 scale (0 no effect, 100 complete control)
How it was run: as §1

[9] = 125 g ai/ha Postemergence, 0 is no effect, 100 is complete control

| Compound | Plant response rating (0 to 100 scale), Foxtail, Giant ([1]; 31 g ai/ha Preemergence) | Plant response rating (0 to 100 scale), Foxtail, Giant ([1]; 125 g ai/ha Preemergence) | Soybean plant response rating ([2]; 31 g ai/ha Postemergence) | Soybean plant response rating ([2]; 125 g ai/ha Postemergence) | Plant response rating (0 to 100 scale), Wheat ([3]; 31 g ai/ha Preemergence) | Plant response rating (0 to 100 scale), Wheat ([3]; 125 g ai/ha Preemergence) | Plant response rating (0 to 100 scale), Blackgrass ([4]; 31 g ai/ha Preemergence) | Plant response rating (0 to 100 scale), Blackgrass ([4]; 125 g ai/ha Preemergence) | Plant response rating (0 to 100 scale), Ragweed ([5]; 31 g ai/ha Preemergence) | Plant response rating (0 to 100 scale), Ragweed ([5]; 125 g ai/ha Preemergence) | Corn plant response rating ([6]; 31 g ai/ha Postemergence) | Plant response rating (0 to 100 scale), Corn ([6]; 125 g ai/ha Postemergence) | Plant response rating (0 to 100 scale), Soybean ([7]; 31 g ai/ha Preemergence) | Plant response rating (0 to 100 scale), Soybean ([7]; 125 g ai/ha Preemergence) | Ryegrass, Italian plant response rating ([8]; 31 g ai/ha Postemergence) | Ryegrass, Italian plant response rating ([8]; 125 g ai/ha Postemergence) | Plant response rating (0 to 100 scale), Soybean [2, 9] | Plant response rating (0 to 100 scale), Ryegrass, Italian [8, 9] | Corn plant response rating ([6]; 125 g ai/ha Postemergence) |
| --- | --- | --- | --- | --- | --- | --- | --- | --- | --- | --- | --- | --- | --- | --- | --- | --- | --- | --- | --- |
| Cc1cc(C)c(N2CCC(OC3CC3)C2=O)cc1NS(=O)(=O)C(F)(F)F (single isomer, unassigned) [Compound 29] | 90 | 100 | 60 | 100 | 90 | 100 | 90 | 90 | 80 | 90 | 80 | 90 | 90 | 100 | 70 | 100 |  |  |  |
| Cc1cc(C)c(N2CCC(OC3CC3)C2=O)cc1NS(=O)(=O)C(F)(F)F (single isomer, unassigned) [Compound 30] | 100 | 100 | 50 | 60 | 90 | 100 | 80 | 100 | 100 | 100 | 90 | 90 | 80 | 90 | 90 | 100 |  |  |  |
| C#CCO/N=C1\CCN(c2cc(NS(=O)(=O)C(F)(F)F)c(C)cc2C)C1=O [Compound 13, N-[2,4-dimethyl-5-[2-oxo-3-[(2-propyn-1-yloxy)imino]-1-pyrrolidinyl]phenyl]-1,1,1-trifluoromethanesulfonamide] | 100 | 100 | 100 |  | 90 | 100 | 90 | 100 | 50 | 100 | 100 | 100 | 80 | 100 | 60 |  | 100 | 60 |  |
| Cc1cc(C)c(N(COC(=O)C(C)(C)C)S(=O)(=O)C(F)(F)F)cc1N1CCC(OCC2CC2(F)F)C1=O (centres unmarked) [Compound 54] | 0 | 80 | 50 | 60 | 0 | 80 |  |  | 0 | 60 | 0 |  | 0 | 30 | 60 | 70 |  |  | 80 |
| Cc1cc(C)c(N(COC(=O)C(C)(C)C)S(=O)(=O)C(F)(F)F)cc1N1CCC(OCC2CC(F)(F)C2)C1=O (centres unmarked) [Compound 55] | 0 | 10 | 50 | 70 | 10 | 40 |  |  |  | 40 | 0 |  | 0 | 0 | 0 | 60 |  |  | 70 |
| Cc1cc(C)c(N(COC(=O)C(C)(C)C)S(=O)(=O)C(F)(F)F)cc1N1CCC(OCC2CCC2)C1=O (centres unmarked) [Compound 56] | 0 | 80 | 40 | 50 | 0 | 0 |  |  | 0 | 30 | 0 |  | 0 | 30 | 0 | 60 |  |  | 30 |
